Measurements reported in patent US7566808B2, “Management of ophthalmologic disorders, including macular degeneration” (President and Fellows of Harvard College, priority 2004, dated 2009).

Legend:
[1] = tested on: A2E formation from all-trans-retinal and ethanolamine; assay: In vitro A2E formation in the presence of aromatic amine
Procedure: 100 mg (355 μmoles) of all-trans-retinal was dissolved in 3 mL followed by the addition of 9.5 μL of glacial acetic acid 9.5 μL of ethanolamine (155 μmoles). This solution was aliquoted into 300 μL fractions. 3-aminoethylbenzoate (15.5 μmoles) was added to the samples at 0, 2, 3.75, 14, 16.25, 18.0833 19.917 23.75 and 48 hrs. […] The solutions were shaken at room temperature for 48 hrs. The solutions were then kept at −80° C. and 15 μL was diluted to 250 μL (methanol). The solutions (15 μL) were then analyzed on a reverse phase (C18-5 μm-4.6 mm×150 mm) column on a linear gradient 85%-96% methanol/water and UV detector at 430 nm to determine the amount of A2E formation. The percent A2E formation was compared to A2E formation at 48 h in the absence of aromatic amine.

abcr knockout mice = assay: In vivo A2E accumulation in abcr knockout mice; conditions: versus no drug
Procedure: Effects on accumulation of A2E in abcr knockout mice by farnesyl decyl ketone and N-palmityl farnesimide were investigated. Mice were injected with 50 mg/kg drug in 25 microliters of DMSO or with only DMSO for the control group once or twice a week. After 2 to 2½ months, the mice were sacrificed, and A2E and iso-A2E were harvested and quantitated from 4 eyes for each drug or control.

[2] = tested on: bovine retinal pigment epithelial membrane system (11-cis-retinol formation); assay: 11-cis-retinol formation in RPE membranes (IMH activity / RPE65 function); format: biochemical
Procedure: A control reaction mixture without any inhibitor was also incubated at room temperature for 15 min. At the end of the 15 min incubation, all-trans-retinol [11-12-^3H2] (0.2 μM) was added to the reaction mixtures (100 mM Tris pH 8.0, […] of RPE protein, 0.2% BSA 100 μM of DPPC, 1 mM of DTT and 0.2 μM all-trans-retinol [11-12-^3H2]) and incubated at room temperature for 30 min. At the end of this 30 minutes of incubation, an aliquot of the reactions were quenched to verify the equal addition of all-trans-retinol [11,12-^3H2] and the effect of these inhibitors on LRAT. After this the control reaction mixture was incubated with atRA (60 & 6 μM), 13cRA (60 & 6 μM) or 4-HPR (60 & 6 μM) for 15 min. Now all the reaction mixtures were incubated with 30 μM of apo-rCRALBP (100 mM Tris pH 8.0, 7.7 μg of RPE protein, 0.2% BSA 100 μm of DPPC, 1 mM of DTT 30 μM apo-rCRALBP and 0.2 μM all-trans-retinol [11-12-^3H2]) at 37° C. for 30 minutes. At the end of this incubation period the 200 μL reaction mixture was quenched by the addition of 750 μL ice cold methanol after which 100 μL of 1M sodium chloride solution was added, and 500 μl hexane (containing butylated hydroxy toluene at 1 mg/mL) was added to effect extraction of the retinoids. The retinoids were analyzed as previously described (27). The amount of 11-cis-retinol formed was used as a measurement of IMH activity. All experiments were performed in triplicate and the average values of these measurements were used for analysis.
A control reaction mixture without any inhibitor was also incubated at room temperature for 15 min. At the end of the 15 min incubation, all-trans-retinol [11-12-^3H2] (0.2 μM) was added to the reaction mixtures (100 mM Tris pH 8.0, 76.7 μg of RPE protein, 0.2% BSA 100 μM of DPPC, 1 mM of DTT and 0.2 μM all-trans-retinol [11-12-^3H2]) and incubated at room temperature for 30 min. […] The retinoids were analyzed as previously described (27). […]

tLRAT = biological target: T1, tLRAT (Homo sapiens, UniProt O95237); assay: mRPE65 concentration-dependent esterification of vitamin A by tLRAT; format: biochemical; conditions: FIG. 11C
T1 construct: This form of LRAT has the two N and C-terminal transmembrane domains of LRAT truncated, and is His-tagged; made in house
T1 sequence (O95237 31-196 limits assumed): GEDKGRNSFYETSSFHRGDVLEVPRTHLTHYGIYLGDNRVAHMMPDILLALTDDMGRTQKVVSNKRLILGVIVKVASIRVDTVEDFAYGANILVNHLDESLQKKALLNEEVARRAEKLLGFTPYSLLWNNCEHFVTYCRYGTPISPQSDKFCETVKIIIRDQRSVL
Procedure: Effect of sRPE65 on tLRAT mediated esterification: The activity of LRAT was determined by monitoring the formation of tLRAT catalyzed retinyl esters from added all-trans-retinol [11,12-^3H2] sRPE65 and/or DPPC/dodecyl maltoside. In all of the studies reported here truncated LRAT (tLRAT) is used (Jahng et al., 2003b). This form of LRAT has the two N and C-terminal transmembrane domains of LRAT truncated, and is His-tagged which allows for the bacterial expression of LRAT and for its full purification (Bok et al., 2003). LRAT has never been purified and is not expressible in bacteria. Kinetic studies on LRAT and tLRAT show them to behave identically (Bok et al., 2003). […] The amount of all-trans-retinyl palmitate [11,12-^3H2] formed as determined by normal phase HPLC and was used as a measure of activity. […]
mRPE65 concentration-dependent esterification of vitamin A: The effect of mRPE65 concentration on the rates of all-trans-retinyl palmitate formation was determined by monitoring the tLRAT catalyzed formation of all-trans-retinyl palmitate from added [11,12-^3H2]-all-trans-retinol and mRPE65. […] The amount of all-trans-retinyl palmitate [11,12-^3H2] formed as determined by normal phase-HPLC and was used as a measure of activity. The kinetic paramaters KM (Kapp) and N were calculated as described before (Segal 1993). […]

CCOC(=O)c1cccc(N)c1 [3-aminoethylbenzoate, ethyl 3-aminobenzoate]
A2E % formation (48 Hrs = 100) ([1]; amine added at 0 hrs): 3.98%
A2E % formation (48 Hrs = 100) ([1]; amine added at 2 hrs): 8.67%
A2E % formation (48 Hrs = 100) ([1]; amine added at 3.75 hrs): 7.71%
A2E % formation (48 Hrs = 100) ([1]; amine added at 14 hrs): 19.73%
A2E % formation (48 Hrs = 100) ([1]; amine added at 16.25 hrs): 19.25%
A2E % formation (48 Hrs = 100) ([1]; amine added at 18.0833 hrs): 23.70%
A2E % formation (48 Hrs = 100) ([1]; amine added at 19.91667 hrs): 27.65%
A2E % formation (48 Hrs = 100) ([1]; amine added at 23.75 hrs): 22.44%
A2E % formation (48 Hrs = 100) ([1]; amine added at 48 hrs): 100.00%

CCCCCCCCCCC(=O)CC=C(C)CCC=C(C)CCC=C(C)C [Farnesyl decyl ketone, farnesyl decyl ketone]
reduction of total accumulation (abcr knockout mice): about 80%

CC1=C(/C=C/C(C)=C/C=C/C(C)=C/C(=O)Nc2ccc(O)cc2)C(C)(C)CCC1 [N-(4-hydroxyphenyl)retinamide]
inhibition of 11-cis-retinol formation, pre-incubation with inhibitor ([2]; 60 μM or 6 μM, pre-incubation before vitamin A, FIG. 8): substantially weaker

CCCCCCCCCCCCCCCCNC(=O)C/C=C(\C)CC/C=C(\C)CCC=C(C)C [N-Palmityl farnesimide, palmityl farnesimide]
reduction of total accumulation (abcr knockout mice): about 47%

CC1=C(/C=C/C(C)=C/C=C/C(C)=C/C(=O)O)C(C)(C)CCC1 [all-trans-retinoic acid]
inhibition of 11-cis-retinol formation, membranes pre-incubated with vitamin A before inhibitor ([2]; 60 μM, data not shown): not susceptible to inhibition

B1: mRPE65: membrane-associated, palmitoylated form of RPE65; acts as palmitoyl donor for LRAT (protein, UniProt Q16518 2-533, looked up)
Retinoid isomerohydrolase: SIQVEHPAGGYKKLFETVEELSSPLTAHVTGRIPLWLTGSLLRCGPGLFEVGSEPFYHLFDGQALLHKFDFKEGHVTYHRRFIRTDAYVRAMTEKRIVITEFGTCAFPDPCKNIFSRFFSYFRGVEVTDNALVNVYPVGEDYYACTETNFITKINPETLETIKQVDLCNYVSVNGATAHPHIENDGTVYNIGNCFGKNFSIAYNIVKIPPLQADKEDPISKSEIVVQFPCSDRFKPSYVHSFGLTPNYIVFVETPVKINLFKFLSSWSLWGANYMDCFESNETMGVWLHIADKKRKKYLNNKYRTSPFNLFHHINTYEDNGFLIVDLCCWKGFEFVYNYLYLANLRENWEEVKKNARKAPQPEVRRYVLPLNIDKADTGKNLVTLPNTTATAILCSDETIWLEPEVLFSGPRQAFEFPQINYQKYCGKPYTYAYGLGLNHFVPDRLCKLNVKTKETWVWQEPDSYPSEPIFVSHPDALEEDDGVVLSVVVSPGAGQKPAYLLILNAKDLSEVARAEVEINIPVTFHGLFKKS
modifications: palmitoylated membrane-associated form
notes: membrane-associated, palmitoylated form of RPE65; acts as palmitoyl donor for LRAT
Hill plot N (tLRAT): 2.54
